Source: patent publication US9340572B2, “Taccalonolide microtubule stabilizers” (THE BOARD OF REGENTS OF THE UNIVERSITY OF TEXAS SYSTEM, priority 2011, dated 2016)
Read-outs that look alike come from different tables or passages of the source.

Tests used:
HeLa cells [1] = test: Inhibition of cellular proliferation, SRB assay in HeLa cells; format: cell-based; conditions: for IC50: HeLa cells, SRB assay; for fold increase in potency on epoxidation at C22-C23: epoxide compared with parent taccalonolide
Protocol: The determination of IC50 values was performed on taccalonolide material after NMR analysis and subsequent lyophilization. Ethanol or DMSO was used as the vehicle for all cellular studies.
The antiproliferative potencies of the taccalonolides were evaluated in HeLa cells using the SRB assay. Several new taccalonolides with low nanomoloar potency were identified, Table 1.

WTβIII versus HeLa cells = test: Relative resistance, βIII-tubulin expressing cell line pair; format: cell-based
Protocol: (§1) FIG. 7—Effect of the taccalonolides in drug resistant and sensitive cells. IC50 values for inhibition of cellular proliferation for taccalonolides AF and AJ were determined in drug sensitive and drug resistant cell lines. The HeLa cell pair evaluated the effect of βIII tubulin expression on cell sensitivity and the ability of compounds to overcome drug resistance mediated by βIII tubulin expression. The SK-OV-3 cell line pair was used to evaluate the effects of the expression of P-glycoprotein (Pgp) on cell sensitivity and the ability of compounds to overcome Pgp-mediated drug resistence. The effects of the taccalonolides on the drug senstive prostate cancer cell line PC-3 are also presented. IC50 values were calculated from an average of 3-4 independent experiments, each performed in triplicate.
(§2) The HeLa cervical cancer cell line, the SK-OV-3 ovarian cancer cell line and the PC-3 prostate cancer cell line were obtained from American Type Tissue Culture Collection (Manassas, Va.) and grown in Basal Media Eagle (BME) or RPMI 1640 medium (Invitrogen; Carlsbad, Calif.) supplemented with 10% fetal bovine serum (Hyclone; Logan, Utah) and 50 μg/ml gentamicin sulfate (Invitrogen). […]
(§3) The antiproliferative and cytotoxic effects of the taccalonolides were evaluated using the SRB assay (Skehan et al., 1990, Boyd and Paull, 1995) as previously described (Tinley et al., 2003). […]

[2] = test system: MDA-MB-231 human breast tumors; test: Antitumor activity against MDA-MB-231 tumors in nude mice; format: in vivo
Protocol: FIG. 6—Antitumor activity of taccalonolide AF. […] Tumor size was measured using calipers and volume calculated with the formula: Tumor volume (mm^3)=width (mm)×length (mm)×height (mm) and graphed as median tumor size for days 0-8.
The ability of taccalonolide AF to inhibit the growth of the aggressive human breast tumor MDA-MB-231 in a murine host was determined Taccalonolide AF was administered at a dose of 2.5 mg/kg on days 1 and 3.

[3] = test system: purified porcine brain tubulin; test: Tubulin polymerization followed turbidimetrically; format: biochemical; conditions: 10 μM; 2 mg/ml tubulin, 10% glycerol, 1 mM GTP, 37° C., OD340
Protocol: FIG. 5—Effect of the taccalonolides on purified porcine brain tubulin. […] Tubulin polymerization was monitored by turbidity measurement at OD340.
The ability of these new potent taccalonolides to interact directly with tubulin was assessed by incubating purified porcine brain tubulin at a concentration of 2 mg/ml in the presence of 10% glycerol and 1 mM GTP, which allows for a baseline level of tubulin polymerization that can be followed turbidimetrically (FIG. 5).

[4] = test system: human mammary epithelial cells; test: Cytotoxicity to normal cells; format: cell-based; conditions: concentrations 5 to 100-fold their IC50 values in HeLa
HeLa cells [5] = test: Interphase microtubule bundling by indirect immunofluorescence; format: cell-based; conditions: 18 h; 200 nM AF, 200 nM AI, 70 nM AJ
Protocol: FIGS. 2A-D—Effect of the taccalonolides on interphase cells. HeLa cells were treated for 18 h with vehicle (FIG. 2A), 200 nM taccalonolide AF (FIG. 2B), 200 nM taccalonolide AI (FIG. 2C), or 70 nM taccalonolide AJ (FIG. 2D). Interphase microtubule structures were visualized by indirect immunofluorescence using a β-tubulin antibody.
(§4) Cellular microtubules in interphase and mitotic HeLa cells were visualized using indirect immunofluorescence techniques as previously described (Tinley et al., 2003). […] Representative images of interphase and mitotic cells were acquired using a Nikon Eclipse 80i fluorescence microscope and compiled using NIS Elements AR 3.0 software.

HeLa cells [6] = test: Mitotic spindle structures by indirect immunofluorescence; format: cell-based; conditions: 18 h; 125 nM AF, 200 nM AI, 35 nM AJ
Description: FIGS. 4A-D—Effect of the taccalonolides on mitotic spindles. […] The microtubule structures in mitotic cells were visualized by indirect immunofluorescence using a β-tubulin antibody.
as §4
The effects of the taccalonolides on mitotic spindle structures were evaluated to test whether they caused mitotic spindle defects leading to cell cycle arrest. β-tubulin and DNA were visualized in HeLa cells by indirect immunofluorescence and DAPI staining, respectively. […] These mitotic cells contained multiple abnormal mitotic spindles, which is another common effect of microtubule stabilizing agents (FIGS. 4A-D).

[7] = test system: SK-OV-3/MDR-1-6/6 versus SK-OV-3 cells; test: Relative resistance, P-glycoprotein expressing cell line pair; format: cell-based; conditions: P-glycoprotein expressing SK-OV-3 pair
Protocol: as §1, §2, §3

[8] = test system: cell lines that overexpress MRP7; conditions: MRP7 overexpressing cell lines; cited from earlier work
[9] = cited from earlier work
[10] = test system: doxorubicin- and paclitaxel-resistant Pgp-expressing tumor, Mam17/ADR; conditions: cited from earlier work
[11] = test system: cell lines that overexpress Pgp; conditions: Pgp overexpressing cell lines; cited from earlier work
[12] = test system: isogenic HeLa-derived cell line that expresses the βIII isotype of tubulin; conditions: cited from earlier work
[13] = parent taccalonolide, read-out: IC50 (nM), Taccalonolide

CC(=O)O[C@H]1C2[C@@H]([C@@H](O)[C@@H](O)[C@H]3C[C@@H]4O[C@@H]4[C@H](OC(C)=O)[C@]23C)[C@@H]2[C@@H](O)[C@@H]3[C@H]([C@H](C)C=C4OC(=O)[C@@](C)(O)[C@@]43C)[C@@]2(C)[C@H]1OC(C)=O (stereo partly shown) [TA-NaBH4-10]
IC50 (HeLa cells [1]; [13]): 20000 nM

CC(=O)O[C@@H]1[C@H](O)[C@@H]2C([C@H](OC(C)=O)[C@H](OC(C)=O)[C@]3(C)[C@@H]4[C@@H]([C@H](O)[C@@H]23)[C@]2(C)C(=C[C@H]4C)OC(=O)[C@@]2(C)O)[C@]2(C)[C@@H]1C[C@@H]1O[C@@H]1[C@@H]2OC(C)=O (stereo partly shown) [TA-NaBH4-12]
IC50 (HeLa cells [1]; [13]): 7500 nM

CC(=O)O[C@H]1C(=O)[C@H]2C[C@@H]3O[C@@H]3[C@H](OC(C)=O)[C@]2(C)C2[C@@H]1[C@@H]1[C@@H](O)[C@@H]3[C@H]([C@H](C)C=C4OC(=O)[C@@](C)(O)[C@@]43C)[C@@]1(C)[C@@H](OC(C)=O)[C@H]2OC(C)=O (stereo partly shown) [TB-AC-16]
IC50 (HeLa cells [1]; [13]): 40000 nM

CC(=O)O[C@@H]1[C@H]2[C@H]3C([C@H](OC(C)=O)[C@H](OC(C)=O)[C@]2(C)[C@@H]2[C@@H]1[C@]1(C)C(=C[C@@]2(C)OO)OC(=O)[C@@]1(C)O)[C@]1(C)[C@H](C[C@@H]2O[C@@H]2[C@@H]1OC(C)=O)C(=O)[C@@H]3O (stereo partly shown) [Taccalonolide AC]
IC50 (HeLa cells [1]; Homo sapiens, parent taccalonolide, read-out: IC50 (nM), Taccalonolide): > 50000 nM
IC50 (HeLa cells [1]; Homo sapiens, read-out: IC50 value): > 50000 nM

CC(=O)O[C@@H]1[C@H]2[C@H]3[C@H]([C@H](OC(C)=O)[C@H](OC(C)=O)[C@]2(C)[C@H]2[C@H](C)[C@H]4O[C@]45OC(=O)[C@@](C)(O)[C@]5(C)[C@@H]12)[C@]1(C)[C@H](C[C@@H]2O[C@@H]2[C@@H]1OC(C)=O)C(=O)[C@@H]3O [Taccalonolide AF]
fold increase in potency on epoxidation at C22-C23 (HeLa cells [1]; HeLa IC50): 234 fold
relative resistance (IC50 resistant line / IC50 parental line) (WTβIII versus HeLa cells): much lower than paclitaxel
antitumor activity compared to paclitaxel positive control ([2]; 2.5 mg/kg days 1 and 3 vs 10 mg/kg paclitaxel days 1, 3 and 5, first week of treatment): greater antitumor activity than the positive control
antitumor activity compared to vehicle treated controls ([2]; 2.5 mg/kg on days 1 and 3, preliminary): sufficient to observe antitumor activity
rate and extent of tubulin polymerization [3]: dramatically increased
cytotoxicity of normal cells [4]: No cytotoxicity
bundling of interphase microtubules (HeLa cells [5]): formation of thick bundled microtubule tufts
effect on mitotic spindles (HeLa cells [6]): mitotic arrest of cells with multiple abnormal mitotic spindles
relative resistance (IC50 resistant line / IC50 parental line) [7]: much lower than paclitaxel

CC(=O)O[C@H]1[C@H]2[C@H]([C@@H]3[C@@H](O)[C@@H]4[C@H]([C@H](C)[C@@H]5O[C@@]56OC(=O)[C@@](C)(O)[C@]46C)[C@@]3(C)[C@H]1OC(C)=O)[C@@H](O)C(=O)[C@H]1C[C@@H]3O[C@@H]3[C@H](OC(C)=O)[C@]21C [Taccalonolide AJ]
fold increase in potency on epoxidation at C22-C23 (HeLa cells [1]; HeLa IC50): 743 fold
relative resistance (IC50 resistant line / IC50 parental line) (WTβIII versus HeLa cells): much lower than paclitaxel
rate and extent of tubulin polymerization [3]: dramatically increased
cytotoxicity of normal cells [4]: No cytotoxicity
bundling of interphase microtubules (HeLa cells [5]): formation of thick bundled microtubule tufts
effect on mitotic spindles (HeLa cells [6]): mitotic arrest of cells with multiple abnormal mitotic spindles
relative resistance (IC50 resistant line / IC50 parental line) [7]: much lower than paclitaxel

CC(=O)O[C@@H]1[C@H]2[C@H]3[C@H]([C@H](OC(C)=O)[C@H](OC(C)=O)[C@]2(C)[C@@H]2[C@@H]1[C@]1(C)C(=C[C@H]2C)OC(=O)[C@@]1(C)O)[C@]1(C)[C@H](C[C@@H]2O[C@@H]2[C@@H]1OC(C)=O)C(=O)[C@@H]3O [Taccalonolide A]
efficacy in vitro [8]: effective
in vivo antitumor activity [9]: have in vivo antitumor activity
activity in vivo [10]: highly active
efficacy in vitro [11]: effective

CC(=O)O[C@H]1[C@H]2[C@H]([C@@H]3[C@@H](O)[C@@H]4[C@H]([C@H](C)C=C5OC(=O)[C@@](C)(O)[C@@]54C)[C@@]3(C)[C@H]1OC(C)=O)[C@@H](O)C(=O)[C@H]1C[C@@H]3O[C@@H]3[C@H](OC(C)=O)[C@]21C [Taccalonolide B]
efficacy in vitro [8]: effective
efficacy in vitro [11]: effective

CC(=O)O[C@H]1[C@@H]2[C@H]([C@H](C)C=C3OC(=O)[C@@](C)(O)[C@@]32C)[C@]2(C)[C@@H]1C1=C(O)C(=O)[C@H]3C[C@@H]4O[C@@H]4[C@H](OC(C)=O)[C@]3(C)[C@H]1[C@H](OC(C)=O)[C@@H]2OC(C)=O [Taccalonolide H2, reference compound]
fold more potent than taccalonolide A (HeLa cells [1]; HeLa IC50): 7.4 fold

CC(=O)O[C@H]1C[C@H]2[C@H]([C@@H]3[C@@H](O)[C@@H]4[C@H]([C@H](C)C=C5OC(=O)[C@@](C)(O)[C@@]54C)[C@]31C)[C@@H](O)C(=O)[C@H]1C[C@@H]3O[C@@H]3[C@H](OC(C)=O)[C@@]12C [Taccalonolide N]
efficacy in vitro [8]: effective
in vivo antitumor activity [9]: have in vivo antitumor activity
efficacy in vitro [11]: effective

CC(=O)O[C@@]12CO[C@@H]1C[C@H](O)[C@@]1(C)C(=O)[C@H](O)C3=C(C)[C@@H](OC(=O)[C@H](O)[C@@H](NC(=O)OC(C)(C)C)c4ccccc4)C[C@@](O)([C@@H](OC(=O)c4ccccc4)[C@H]21)C3(C)C [docetaxel]
sensitivity of βIII-tubulin-overexpressing cell line compared with parental HeLa cells [12]: less sensitive

C/C(=C\c1csc(C)n1)[C@@H]1C[C@@H]2O[C@]2(C)CCC[C@H](C)[C@H](O)[C@@H](C)C(=O)C(C)(C)[C@@H](O)CC(=O)O1 [epothilone B]
sensitivity of βIII-tubulin-overexpressing cell line compared with parental HeLa cells [12]: less sensitive

CC[C@]1(O)C[C@@H]2CN(CCc3c([nH]c4ccccc34)[C@@](C(=O)OC)(c3cc4c(cc3OC)N(C)[C@H]3[C@@](O)(C(=O)OC)[C@H](OC(C)=O)[C@]5(CC)C=CCN6CC[C@]43[C@@H]65)C2)C1 [vinblastine]
sensitivity of βIII-tubulin-overexpressing cell line compared with parental HeLa cells [12]: less sensitive
